For series [1], the system named is Zucker diabetic fatty rats (ZDF). Briefly: Model 4: Zucker diabetic fatty rats. The series is classed as in vivo. The note with it: daily dose of 100 mg/kg for four weeks, vs vehicle. Here is the method:
All protocols were approved by the institutional animal care and use committee at Arête Therapeutics. Eight weeks old male Zucker diabetic fatty rats (ZDF) (Charles River Laboratory, Hollister, Calif.) with a 270 g body weight on average used in this study were fed a normal chow. Baseline blood pressure and body weight were measured before surgery. Animals were anesthetized by inhalation of 2% isoflurane. The animals were randomly divided into 2 groups; […] Four animals were assigned to the vehicle group and three to the Compound 2 group. After 4 weeks of treatment, systolic blood pressure was measured in conscious mice using a tail-cuff system (Kent Scientific Corporation, Torrington, Conn.), and the animals were euthanized. Blood samples were collected via cardiac puncture for the measurement of a serum cholesterol profile (IDEXX Veterinary Services, West Sacramento, Calif.) and tissues were removed for analysis. All results are presented as the mean and standard error (SEM). Comparison between the vehicle and Compound 2 treatment groups was performed using Student's t test.

In series [2] the target is T1, sEH (Homo sapiens, UniProt P34913).
T1 sequence (P34913 1-555): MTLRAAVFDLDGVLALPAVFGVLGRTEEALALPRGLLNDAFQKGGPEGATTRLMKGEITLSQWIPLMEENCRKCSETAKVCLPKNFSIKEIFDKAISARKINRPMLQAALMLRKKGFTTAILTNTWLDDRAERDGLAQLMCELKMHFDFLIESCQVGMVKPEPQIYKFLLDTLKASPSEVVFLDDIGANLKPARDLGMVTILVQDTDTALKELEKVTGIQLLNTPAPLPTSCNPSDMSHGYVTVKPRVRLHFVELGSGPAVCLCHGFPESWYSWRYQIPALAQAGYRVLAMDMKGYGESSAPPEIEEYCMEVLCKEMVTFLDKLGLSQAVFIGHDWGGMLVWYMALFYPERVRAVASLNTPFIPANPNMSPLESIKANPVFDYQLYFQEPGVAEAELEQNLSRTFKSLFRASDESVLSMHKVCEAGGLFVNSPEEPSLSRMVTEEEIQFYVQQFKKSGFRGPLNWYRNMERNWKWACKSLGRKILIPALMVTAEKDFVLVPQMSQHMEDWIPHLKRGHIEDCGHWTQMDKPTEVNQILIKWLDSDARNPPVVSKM
Kind of series: sEH inhibition, fluorescent assay with CMNPC substrate (percent inhibition and IC50). The format is biochemical. The conditions noted are these: Concentration 2000 nM. As for the experimental part:
The substrate for the reaction was:
Therefore, well A2 would refer to a well in the first row and second column of the plate.
In a black 96 well plate, all the wells are filled with 150 μL of buffer A (Buffer A: Bis/Tris HCl, 25 mM, pH 7.0 plus 0.1 mg/mL BSA). DMSO (2 microliters) was added in well A2 and A3, and then was added 2 μL of inhibitor solution in A1 and A4 through A12. […] The plate was incubated for 5 minutes in the plate reader at 30° C. During incubation, the working solution of substrate was prepared by mixing 3.68 mL of buffer A with 266 μL of 0.5 mM substrate solution. At t=0, 30 μL of working substrate solution was added and readings were started ([S]final: 5 μM).

In series [3] the test system is over 100 cardiovascular disease related targets, including hydroxy-methylglutaryl-coenzyme A (HMO CoA) reductase. Briefly: off-target screen assays. The note with it: concentration of 10 μM.
The next series is described as follows: pharmacokinetics in mice. The format is in vivo. The note with it: mouse, plasma.
For series [4], the target named is T1, sEH. Kind of series: sEH cell based assay (Compound 6). The note with it: read-out: IC50 for inhibition of sEH, cell based assay.
A further series addresses T2, whole blood sEH activity (Mus musculus, UniProt P34914).
T2 construct: from tissue; host or cells: whole blood of apoE KO mice
T2 sequence (P34914 1-554): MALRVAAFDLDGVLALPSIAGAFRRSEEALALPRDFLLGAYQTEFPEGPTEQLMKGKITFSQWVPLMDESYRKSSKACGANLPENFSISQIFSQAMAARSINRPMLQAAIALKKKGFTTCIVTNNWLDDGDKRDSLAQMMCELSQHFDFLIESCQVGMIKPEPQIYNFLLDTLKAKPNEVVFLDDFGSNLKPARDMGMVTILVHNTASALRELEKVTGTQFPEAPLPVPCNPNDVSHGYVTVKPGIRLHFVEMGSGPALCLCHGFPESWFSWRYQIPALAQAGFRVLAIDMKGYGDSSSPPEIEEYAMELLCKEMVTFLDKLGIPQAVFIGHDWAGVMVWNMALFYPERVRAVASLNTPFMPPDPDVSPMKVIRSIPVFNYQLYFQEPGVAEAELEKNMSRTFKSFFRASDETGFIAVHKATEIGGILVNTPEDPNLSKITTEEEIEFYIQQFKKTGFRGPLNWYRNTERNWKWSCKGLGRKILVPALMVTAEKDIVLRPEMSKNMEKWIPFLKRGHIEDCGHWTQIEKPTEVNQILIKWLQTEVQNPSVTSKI
Briefly: whole blood sEH activity in apoE KO mice, dosing with drinking water. The series is classed as in vivo. The conditions noted are these: treatment with drinking water.

The next series concerns apoE deficient mice. Briefly: Model 3: angiotensin II-infused apoE deficient mice with carotid ligation. The format is in vivo. Here is the method:
All protocols were approved by the institutional animal care and use committee at Arête Therapeutics. Six-month old male apoE deficient mice (The Jackson Laboratory, Bar Harbor, Me.) fed a normal chow were used in this study. Baseline blood pressure and body weight were measured before surgery. Animals were anesthetized by inhalation of 2% isoflurane. The left common carotid artery carefully dissected via a midline neck incision under a dissecting microscope, and the left common carotid artery was ligated with a 6-0 silk ligature just proximal to its bifurcation. At the time of ligation, animals were subcutaneously implanted with a minipump (model 2004, Durect Corp., Cupertino, Calif.) filled with Ang II (1.44 mg/Kg/day, Phoenix Pharmaceuticals, Burlingame, Calif.). The animals were randomly divided into 2 groups; Vehicle: drinking water containing 5% hydroxypropyl-beta-cyclodextrin (HPBCD) or Compound 6: drinking water containing 1.5 mg/ml Compound 6 in 5% HPBCD. Each experimental group included 11 animals. After 4 weeks of Ang TI infusion, systolic blood pressure was measured in conscious mice using a tail-cuff system (Kent Scientific Corporation, Torrington, Conn.), and the animals were euthanized. Blood samples were collected via cardiac puncture for the measurement of a serum cholesterol profile (IDEXX Veterinary Services, West Sacramento, Calif.) and serum inflammatory panel (Murigenics, Hayward, Calif.) using a mouse cytokine/chemokine panel kit (Millipore, Billerica, Mass.), and tissues were removed for analysis.
All results are presented as the mean and standard error (SEM). Comparison between the vehicle and Compound 6 treatment groups was performed using Student's t test. The percentage of mice that developed AAA was compared between the two groups using X^2 test.

Series [5] deals with T1, sEH. Kind of series: sEH enzymatic assay (Compound 6). The format is biochemical. The conditions noted are these: read-out: IC50 for inhibition of sEH, enzymatic assay.
Another series deals with T3, PPARγ (Homo sapiens, UniProt P37231).
T3 sequence (P37231 1-505): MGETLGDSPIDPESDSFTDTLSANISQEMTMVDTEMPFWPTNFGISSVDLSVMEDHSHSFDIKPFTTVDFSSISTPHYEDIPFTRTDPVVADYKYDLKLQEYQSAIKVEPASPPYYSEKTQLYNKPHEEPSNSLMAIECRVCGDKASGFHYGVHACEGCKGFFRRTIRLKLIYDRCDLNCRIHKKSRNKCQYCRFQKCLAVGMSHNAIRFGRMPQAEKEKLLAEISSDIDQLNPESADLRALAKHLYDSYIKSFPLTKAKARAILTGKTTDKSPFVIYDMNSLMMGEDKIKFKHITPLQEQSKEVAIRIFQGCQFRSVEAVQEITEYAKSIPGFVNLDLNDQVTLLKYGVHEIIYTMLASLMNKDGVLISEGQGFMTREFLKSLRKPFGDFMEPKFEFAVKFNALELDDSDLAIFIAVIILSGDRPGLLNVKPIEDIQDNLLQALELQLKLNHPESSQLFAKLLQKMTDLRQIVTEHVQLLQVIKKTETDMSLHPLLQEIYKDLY
Kind of series: standard PPARγ activation assay. The series is classed as cell-based. The conditions noted are these: relative to standard reference.

pIC50: −log10 of the molar value. Where only a bound is given, the exact number is not on record here.

For the compound `CC(=O)N1CCC(NC(=O)NC23CC4CC(CC(C4)C2)C3)CC1` [Compound 2, 1-[1-(acetyl)piperidin-4-yl]-3-(adamant-1-yl) urea], in series [1], the HDL level entry was “decreased”, the LDL result is recorded as “significantly decreased”, the “blood glycated hemoglobin (HbA1c %)” value is “significantly decreased” and the “fasting plasma glucose level” value is “significantly decreased”. For the same compound, in series [1], the total cholesterol result is “significantly decreased” and the “triglycerides (TGs)” value is recorded as “significantly decreased”.
In general, inhibition refers to the percentage by which the read-out fell short of the control. Usually bioavailability stands for dose-corrected exposure relative to a reference, in per cent. A lower bioavailability goes with little systemic uptake. Usually half-life stands for how long it takes for the measured level to halve. The term pIC50 denotes the IC50 on a negative log10 scale, so that one unit is a factor of ten. In the case of `O=C(Nc1ccc(OC(F)(F)F)cc1)NC1CCN(C(=O)c2cccnc2)CC1` [Compound 6, 1-(1-nicotinoylpiperidin-4-yl)-3-(4-(trifluoromethoxy)phenyl)urea], the inhibition at 2 µM against sEH [2] turned out to be 100%. For the same compound, in series [3], the “activity in off-target screen assays” value was “inactive”. In the series “pharmacokinetics in mice” (AUC oral dose relative to AUC intravenous dose), this compound registered a bioavailability greater than 100%. For the same compound, in the series “pharmacokinetics in mice” (intravenous administration, read-out: terminal half life (converted)), the half-life was roughly 240 min. Besides, on sEH [4], the pIC50 was 8.05. This compound also displayed an average plasma concentration at whole blood sEH activity of 21 ± 1.8 µg/mL. Besides, in the series with apoE deficient mice (4 weeks), the “HDL levels compared to vehicle” value is recorded as “significantly higher”; the “effect on blood pressure, body weights, and food consumption” value is listed as “no statistical significant effect”; the “ratio of LDL/HDL relative to vehicle group” value is recorded as “only half of that in vehicle group”; the “total cholesterol level compared to vehicle” value is given as “significantly lower”. In the series on apoE deficient mice (4 weeks), the “triglyceride and glucose levels compared to vehicle” value is “no significant difference”. For the same compound, in the series on apoE deficient mice (4 weeks, vehicle 19.6 ± 1.5), the “Ratio of LDL/HDL” value came out at 10.5 ± 1.5. In the series on apoE deficient mice (4 weeks, vehicle 27 ± 0.7), the “body weight” value amounted to 28 ± 0.6 g. Also, the “HDL” value with apoE deficient mice (4 weeks, vehicle 32 ± 3) was 46 ± 4 mg/dL. Besides, the “Blood Glucose” value with apoE deficient mice (4 weeks, vehicle 216 ± 22) amounted to 185 ± 17 mg/dL. Also, the “Triglyceride” value in the series on apoE deficient mice (4 weeks, vehicle 301 ± 59) is reported as 258 ± 47 mg/dL. Also, the “LDL” value in the series on apoE deficient mice (4 weeks, vehicle 624 ± 70) is reported as 438 ± 28 mg/dL. Also, in the series on apoE deficient mice (Baseline, before surgery and treatment), the “Blood Pressure (mmHg) Baseline” value worked out at 101 ± 2 mmHg. For the same compound, the “Blood Pressure (mmHg) End” value with apoE deficient mice (End, after 4 weeks of Ang II infusion, vehicle 137 ± 3) turned out to be 130 ± 4 mmHg. Also, the “atherosclerosis progression and aneurysm formation” value in the series with apoE deficient mice (apoE deficient mice chronically treated with Ang II) is given as “attenuated”. The pIC50 on sEH [5] was 8.80. For the same compound, the “PPARγ activation relative to troglitzone (100%)” value at PPARγ is recorded as 11%.
As for `CCCCCC1OC1C/C=C\C/C=C\C/C=C\CCCC(=O)O` (centres unmarked) [14, 15 EET, reference compound], the “PPARγ activation relative to troglitzone (100%)” value on PPARγ is 28%.

(Values after patent US20090197916A1, “SOLUBLE EPOXIDE HYDROLASE INHIBITORS FOR TREATMENT OF METABOLIC SYNDROME AND RELATED DISORDERS” (Arete Therapeutics, Inc, priority 2007, published 2009).)
